Source: BindingDB's records for doi:10.1021/acs.jmedchem.6b01247 (University of Chinese Academy of Sciences, 2016)
pEC50: −log10 of the molar value.

Legend:
[1] = Inhibition of Smo in mouse Shh Light2 cells assessed as inhibition of SAG-induced Hh pathway activity by measuring SAG-EC50 at 500 nM measured after 36 hrs by Gli-luciferase reporter gene assay (Rvb = 2.93 nM)
[2] = Inhibition of Smo in mouse Shh Light2 cells assessed as inhibition of SAG-induced Hh pathway activity by measuring SAG-EC50 at 100 nM measured after 36 hrs by Gli-luciferase reporter gene assay (Rvb = 2.93 nM)
[3] = Inhibition of Smo in mouse Shh Light2 cells assessed as inhibition of SAG-induced Hh pathway activity by measuring SAG-EC50 at 50 nM measured after 36 hrs by Gli-luciferase reporter gene assay (Rvb = 2.93 nM)

pEC50 [1]: 6.86
pEC50 [2]: 7.33
pEC50 [3]: 7.62
SMILES: Cc1ccc2c(n1)[C@H]([C@@H](C)C(=O)Nc1ccc(Cl)c(-c3nc4ccccc4n3C)c1)CC[C@H]2C
